Data as given in PubChem BioAssay (NCI).
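Test compounds were applied to cells in 96-well plates for 48 hours at 5 doses. Abbreviation: GI50, concentration required for 50% inhibition of growth. TGI is the concentration that stops growth completely.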

Legend:
Experiment in all cases: inhibition of tumour cell growth, NCI panel, 48 h
786-0 renal = tested on: 786-0 renal
A498 renal = tested on: A498 renal
A549 NSCLC = tested on: A549 NSCLC
ACHN renal = tested on: ACHN renal
BT-549 breast = tested on: BT-549 breast
CAKI-1 renal = tested on: CAKI-1 renal
CCRF-CEM leukemia = tested on: CCRF-CEM leukemia
COLO 205 colon = tested on: COLO 205 colon
DU-145 prostate = tested on: DU-145 prostate
EKVX NSCLC = tested on: EKVX NSCLC
HCC-2998 colon = tested on: HCC-2998 colon
HCT-116 colon = tested on: HCT-116 colon
HCT-15 colon = tested on: HCT-15 colon
HL-60(TB) leukemia = tested on: HL-60(TB) leukemia
HOP-62 NSCLC = tested on: HOP-62 NSCLC
HOP-92 NSCLC = tested on: HOP-92 NSCLC
HS 578T breast = tested on: HS 578T breast
HT29 colon = tested on: HT29 colon
IGROV1 ovarian = tested on: IGROV1 ovarian
K-562 leukemia = tested on: K-562 leukemia
KM12 colon = tested on: KM12 colon
LOX IMVI melanoma = tested on: LOX IMVI melanoma
M14 melanoma = tested on: M14 melanoma
MALME-3M melanoma = tested on: MALME-3M melanoma
MCF7 breast = tested on: MCF7 breast
MDA-MB-231 breast = tested on: MDA-MB-231 breast
MDA-MB-435 = tested on: MDA-MB-435
MOLT-4 leukemia = tested on: MOLT-4 leukemia
NCI-H226 lung = tested on: NCI-H226 lung
NCI-H23 lung = tested on: NCI-H23 lung
NCI-H460 lung = tested on: NCI-H460 lung
NCI-H522 lung = tested on: NCI-H522 lung
NCI/ADR-RES ovarian = tested on: NCI/ADR-RES ovarian
OVCAR-3 ovarian = tested on: OVCAR-3 ovarian
OVCAR-4 ovarian = tested on: OVCAR-4 ovarian
OVCAR-5 ovarian = tested on: OVCAR-5 ovarian
OVCAR-8 ovarian = tested on: OVCAR-8 ovarian
PC-3 prostate = tested on: PC-3 prostate
RPMI-8226 leukemia = tested on: RPMI-8226 leukemia
RXF 393 renal = tested on: RXF 393 renal
SF-268 CNS = tested on: SF-268 CNS
SF-295 CNS = tested on: SF-295 CNS
SF-539 CNS = tested on: SF-539 CNS
SK-MEL-2 melanoma = tested on: SK-MEL-2 melanoma
SK-MEL-28 melanoma = tested on: SK-MEL-28 melanoma
SK-MEL-5 melanoma = tested on: SK-MEL-5 melanoma
SK-OV-3 ovarian = tested on: SK-OV-3 ovarian
SN12C renal = tested on: SN12C renal
SNB-75 CNS = tested on: SNB-75 CNS
SR leukemia = tested on: SR leukemia
SW-620 colon = tested on: SW-620 colon
T-47D breast = tested on: T-47D breast
TK-10 renal = tested on: TK-10 renal
U251 CNS = tested on: U251 CNS
UACC-257 melanoma = tested on: UACC-257 melanoma
UACC-62 melanoma = tested on: UACC-62 melanoma
UO-31 renal = tested on: UO-31 renal

CCCCCCCCc1ccc(OCCOCC[N+](C)(C)CC)cc1 (tested in a mixture with another compound)
GI50 (786-0 renal): 14.2 µM
TGI (786-0 renal): 28.8 µM
GI50 (A498 renal): 9.16 µM
TGI (A498 renal): 22 µM
GI50 (A549 NSCLC): 9.99 µM
TGI (A549 NSCLC): 23.1 µM
GI50 (ACHN renal): 15.6 µM
TGI (ACHN renal): 30.4 µM
GI50 (BT-549 breast): 3.03 µM
TGI (BT-549 breast): 9.8 µM
GI50 (CAKI-1 renal): 54.8 µM
TGI (CAKI-1 renal): > 100 µM
GI50 (CCRF-CEM leukemia): 3.2 µM
TGI (CCRF-CEM leukemia): 15.9 µM
GI50 (COLO 205 colon): 1.59 µM
TGI (COLO 205 colon): 3.21 µM
GI50 (DU-145 prostate): 8.09 µM
TGI (DU-145 prostate): 22.8 µM
GI50 (EKVX NSCLC): 4.6 µM
TGI (EKVX NSCLC): 18.7 µM
GI50 (HCC-2998 colon): 3.74 µM
TGI (HCC-2998 colon): 13.6 µM
GI50 (HCT-116 colon): 3.84 µM
TGI (HCT-116 colon): 14.8 µM
GI50 (HCT-15 colon): 24.8 µM
TGI (HCT-15 colon): > 100 µM
GI50 (HL-60(TB) leukemia): 1.47 µM
TGI (HL-60(TB) leukemia): 4.85 µM
GI50 (HOP-62 NSCLC): 5 µM
TGI (HOP-62 NSCLC): 17.2 µM
GI50 (HOP-92 NSCLC): 1.17 µM
TGI (HOP-92 NSCLC): 4.51 µM
GI50 (HS 578T breast): 3.2 µM
TGI (HS 578T breast): 16.6 µM
GI50 (HT29 colon): 3.1 µM
TGI (HT29 colon): 13.5 µM
GI50 (IGROV1 ovarian): 3.74 µM
TGI (IGROV1 ovarian): 14.7 µM
GI50 (K-562 leukemia): 3.06 µM
TGI (K-562 leukemia): 15.4 µM
GI50 (KM12 colon): 3.72 µM
TGI (KM12 colon): 13.8 µM
GI50 (LOX IMVI melanoma): 2.7 µM
TGI (LOX IMVI melanoma): 13.7 µM
GI50 (M14 melanoma): 4.07 µM
TGI (M14 melanoma): 17.2 µM
GI50 (MALME-3M melanoma): 1.93 µM
TGI (MALME-3M melanoma): 6.44 µM
GI50 (MCF7 breast): 3.05 µM
TGI (MCF7 breast): 12.6 µM
GI50 (MDA-MB-231 breast): 2.75 µM
TGI (MDA-MB-231 breast): 11.3 µM
GI50 (MDA-MB-435): 2.91 µM
TGI (MDA-MB-435): 11.2 µM
GI50 (MOLT-4 leukemia): 4.39 µM
TGI (MOLT-4 leukemia): 18.2 µM
GI50 (NCI-H226 lung): 4.31 µM
TGI (NCI-H226 lung): 19.2 µM
GI50 (NCI-H23 lung): 3.42 µM
TGI (NCI-H23 lung): 15.8 µM
GI50 (NCI-H460 lung): 3.94 µM
TGI (NCI-H460 lung): 14.5 µM
GI50 (NCI-H522 lung): 2.18 µM
TGI (NCI-H522 lung): 9.84 µM
GI50 (NCI/ADR-RES ovarian): > 100 µM
TGI (NCI/ADR-RES ovarian): > 100 µM
GI50 (OVCAR-3 ovarian): 2.79 µM
TGI (OVCAR-3 ovarian): 12.5 µM
GI50 (OVCAR-4 ovarian): 1.66 µM
TGI (OVCAR-4 ovarian): 10.8 µM
GI50 (OVCAR-5 ovarian): 7.5 µM
TGI (OVCAR-5 ovarian): 20.9 µM
GI50 (OVCAR-8 ovarian): 3.81 µM
TGI (OVCAR-8 ovarian): 15.4 µM
GI50 (PC-3 prostate): 3.12 µM
TGI (PC-3 prostate): 12.6 µM
GI50 (RPMI-8226 leukemia): 2.03 µM
TGI (RPMI-8226 leukemia): 6.82 µM
GI50 (RXF 393 renal): 10.5 µM
TGI (RXF 393 renal): 23.4 µM
GI50 (SF-268 CNS): 4.22 µM
TGI (SF-268 CNS): 16.9 µM
GI50 (SF-295 CNS): 13 µM
TGI (SF-295 CNS): 27 µM
GI50 (SF-539 CNS): 3.97 µM
TGI (SF-539 CNS): 15 µM
GI50 (SK-MEL-2 melanoma): 2.56 µM
TGI (SK-MEL-2 melanoma): 8.53 µM
GI50 (SK-MEL-28 melanoma): 3.25 µM
TGI (SK-MEL-28 melanoma): 15.4 µM
GI50 (SK-MEL-5 melanoma): 1.45 µM
TGI (SK-MEL-5 melanoma): 3.06 µM
GI50 (SK-OV-3 ovarian): 7.74 µM
TGI (SK-OV-3 ovarian): 20.2 µM
GI50 (SN12C renal): 3.07 µM
TGI (SN12C renal): 11.9 µM
GI50 (SNB-75 CNS): 2.12 µM
TGI (SNB-75 CNS): 9 µM
GI50 (SR leukemia): 3 µM
TGI (SR leukemia): 14.3 µM
GI50 (SW-620 colon): 3.97 µM
TGI (SW-620 colon): 16.1 µM
GI50 (T-47D breast): 3.14 µM
TGI (T-47D breast): 13.7 µM
GI50 (TK-10 renal): 14.8 µM
TGI (TK-10 renal): 29.1 µM
GI50 (U251 CNS): 1.8 µM
TGI (U251 CNS): 12.3 µM
GI50 (UACC-257 melanoma): 2.34 µM
TGI (UACC-257 melanoma): 6.8 µM
GI50 (UACC-62 melanoma): 1.88 µM
TGI (UACC-62 melanoma): 5.48 µM
GI50 (UO-31 renal): 17.5 µM
TGI (UO-31 renal): 45.4 µM
